Experiment [1] deals with interferon-stimulated responsive elements (ISRE). Nature of the experiment: Activation of ISRE promoter elements by conditioned media from PBMC (HEK-ISREluc). In kind it is cell-based, human. On the set-up: unit not given here. The following applies: compound applied to PBMCs, supernatant transferred to HEK-ISREluc cells, 24 hours. The protocol:
The potential of compounds to induce IFN-I was also evaluated by measuring the activation of interferon-stimulated responsive elements (ISRE) by conditioned media from PBMC. The ISRE element of sequence GAAACTGAAACT is highly responsive to the STAT1-STAT2-IRF9 transcription factor, activated upon binding of IFN-I to their receptor IFNAR (Clontech, PT3372-5W). The plasmid pISRE-Luc from Clontech (ref. 631913) contains 5 copies of this ISRE element, followed by the firefly luciferase ORF. A HEK293 cell line stably transfected with pISRE-Luc (HEK-ISREluc) was established to profile of the conditioned PBMC cell culture media.
Briefly, PBMCs were prepared from buffy coats of at least two donors using a standard Ficoll centrifugation protocol. Isolated PBMCs were resuspended in RPMI medium supplemented with 10% human AB serum and 2×10^5 cells/well were dispensed into 384-well plates containing compounds (70 μL total volume). After overnight incubation, 10 μL of supernatant was transferred to 384-well plates containing 5×10^3 HEK-ISREluc cells/well in 30 μL (plated the day before). Following 24 hours of incubation, activation of the ISRE elements was measured by assaying luciferase activity using 40 μL/well Steady Lite Plus substrate (Perkin Elmer) and measured with ViewLux ultraHTS microplate imager (Perkin Elmer). The stimulating activity of each compound on the HEK-ISREluc cells was reported as LEC value, defined as the compound concentration applied to the PBMCs resulting in a luciferase activity at least two fold above the standard deviation of the assay. The LEC in turn indicates the degree of ISRE activation on transfer of a defined amount of PBMC culture medium. Recombinant interferon α-2a (Roferon-A) was used as a standard control compound.

A further experiment addresses T1, human TLR7 (Homo sapiens, UniProt Q9NYK1).
T1 construct: expressed in transfected cells; host or cells: HEK293
T1 sequence (Q9NYK1 27-1049): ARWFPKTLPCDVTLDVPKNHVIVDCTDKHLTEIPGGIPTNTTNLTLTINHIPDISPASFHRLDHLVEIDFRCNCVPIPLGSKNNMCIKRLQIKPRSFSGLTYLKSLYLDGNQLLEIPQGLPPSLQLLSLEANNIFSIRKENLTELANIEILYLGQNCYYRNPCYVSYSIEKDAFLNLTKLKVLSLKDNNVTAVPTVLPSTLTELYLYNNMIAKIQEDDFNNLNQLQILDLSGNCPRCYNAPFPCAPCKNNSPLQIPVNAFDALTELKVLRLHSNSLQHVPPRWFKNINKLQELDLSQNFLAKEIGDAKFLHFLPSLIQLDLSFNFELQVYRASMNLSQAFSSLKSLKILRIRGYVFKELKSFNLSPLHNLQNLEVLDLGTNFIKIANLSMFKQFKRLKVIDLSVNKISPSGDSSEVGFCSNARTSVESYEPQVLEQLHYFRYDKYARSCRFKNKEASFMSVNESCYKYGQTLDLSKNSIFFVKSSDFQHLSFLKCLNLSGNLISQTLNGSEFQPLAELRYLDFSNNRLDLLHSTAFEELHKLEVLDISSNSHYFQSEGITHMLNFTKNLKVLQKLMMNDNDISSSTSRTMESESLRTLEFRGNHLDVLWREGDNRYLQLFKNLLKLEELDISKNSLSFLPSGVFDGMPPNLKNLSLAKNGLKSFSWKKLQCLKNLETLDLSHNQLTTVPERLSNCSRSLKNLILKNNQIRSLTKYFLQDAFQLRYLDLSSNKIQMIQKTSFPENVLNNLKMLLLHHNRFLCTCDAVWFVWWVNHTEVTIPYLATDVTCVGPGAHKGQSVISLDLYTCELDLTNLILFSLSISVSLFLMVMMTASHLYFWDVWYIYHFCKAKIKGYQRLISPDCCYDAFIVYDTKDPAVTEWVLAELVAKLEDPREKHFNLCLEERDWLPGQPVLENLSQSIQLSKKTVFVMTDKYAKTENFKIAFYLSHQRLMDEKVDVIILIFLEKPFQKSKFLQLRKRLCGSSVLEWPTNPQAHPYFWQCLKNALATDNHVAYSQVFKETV
Nature of the experiment: TLR7 wild type NFκB-luc cellular reporter assay. In kind it is cell-based. On the set-up: unit not given here. The following applies: HEK293 NFκB-luc reporter, 6 hours incubation; second part of table. In general terms: A reporter such as luciferase makes a cellular process visible.

Some results are limits rather than exact numbers.

On to `CC[C@H](C)[C@@H](CO)Nc1nc(N)nc2ccc(OC)cc12` [Compound 80], for which the “HEK-ISRE luc (LEC)” value in experiment [1] is >24. Moreover, the “TLR7-wt (LEC)” value at human TLR7 is >25.
The like results for `CCCC[C@@H](CCO)Nc1nc(N)nc2c(F)cccc12` [Compound 81] were, in that order, 0.05 and 0.11.
For the compound `CCCC[C@@H](CCO)Nc1nc(N)nc2cc(F)ccc12` [Compound 82], the “HEK-ISRE luc (LEC)” value in experiment [1] is 0.04. Moreover, the “TLR7-wt (LEC)” value at human TLR7 is reported as 0.04.
For `CCCC[C@@H](CCO)Nc1nc(N)nc2ccc(F)cc12` [Compound 83], the “HEK-ISRE luc (LEC)” value in experiment [1] was determined as 0.37. For the same compound, at human TLR7, the “TLR7-wt (LEC)” value was 1.59.
Take `CCCC[C@@H](CCO)Nc1nc(N)nc2cccc(F)c12` [Compound 84]: in experiment [1], the “HEK-ISRE luc (LEC)” value was determined as 0.09. Also, the “TLR7-wt (LEC)” value on human TLR7 is recorded as 0.44.
For the compound `CCCCNc1nc(N)nc2ccc(Br)cc12` [Compound 85], the “HEK-ISRE luc (LEC)” value in experiment [1] was found to be 0.21. For the same compound, the “TLR7-wt (LEC)” value at human TLR7 was 0.51.
The like results for `CCC[C@@H](CO)Nc1nc(N)nc2cc(C(=O)OC)ccc12` [Compound 86] were, in that order, 0.28 and 2.01.
Take `CCCC[C@@H](CCO)Nc1nc(N)nc2cc(OC)ccc12` [Compound 87]: the “HEK-ISRE luc (LEC)” value in experiment [1] is given as 0.04. The “TLR7-wt (LEC)” value at human TLR7 is 0.16.
The like results for `CCCC[C@@H](CCO)Nc1nc(N)nc2ccc(OC)cc12` [Compound 88] were, in that order, 0.88 and 1.85.
The like results for `CCCCNc1nc(N)nc2cc(OC)c(OCc3ccccc3)cc12` [Compound 89] were, in that order, >24 and 1.84.

The values are drawn from patent US8916575B2, “Quinazoline derivatives for the treatment of viral infections and further diseases” (Janssen R&D Ireland, priority 2011, dated 2014).
